Patent publication US8222257B2, “Phosphono-pent-2-en-1-yl nucleosides and analogs” (The Regents of the University of California, priority 2005, dated 2012)
Read-outs that look alike come from different tables or passages of the source.

Key:
HSV-1 = assay type: cell-based; settings: Human alphaherpesvirus 1, MRC5, DNA reduction assay in MRC-5 cells
HIV-tLal = assay type: cell-based; settings: Human immunodeficiency virus 1, MT2, read-out: HIV-1 EC50
VZV = VZV CPE assay in HFF cells; assay type: cell-based; settings: Human alphaherpesvirus 3
EBV = EBV Elisa assay in Daudi cells; assay type: cell-based; settings: human gammaherpesvirus 4, Daudi, read-out: EBV EC50
Wild Type HBV = test: HBV replicative intermediates in vitro, wild type HBV; settings: Hepatitis B virus, read-out: EC50 for intracellular HBV replicative intermediates (HBV R.I.), Wild Type
HCMV = test: Antiviral activity against human CMV in vitro; settings: for EC50: Human betaherpesvirus 5, read-out: EC50 HCMV; for EC90: Human betaherpesvirus 5, read-out: EC90 HCMV
MCMV = test: Antiviral activity against murine CMV in vitro; settings: in Mus musculus; for EC50: read-out: EC50 MCMV; for EC90: read-out: EC90 MCMV
in vitro [1] = test: in vitro
in vitro [2] = test: in vitro; remark: listed apart in the source
[3] = Hepatitis B virus, read-out: HBV EC50, DNA reduction assay in 2.2.15 cells
[4] = read-out: HBV EC50, DNA reduction assay in 2.2.15 cells

SMILES | EC50 (HSV-1) | EC50 (HIV-tLal) | EC50 (VZV) | EC50 (HBV; [3]) | also measured
CCCCCCCCCCCCCCCCOCCCOP(=O)(O)CC/C=C\Cn1cnc2c(N)ncnc21 [HDP-PPen-A] | 17.7 µM | > 10 µM | > 60 µM | 1.1 µM | EC50 (EBV): 0.1 µM; EC50 (HBV; [4]): 2 µM; EC50 (Wild Type HBV): 9.2 µM
CCCCCCCCCCCCCCCCOCCCOP(=O)(O)CC/C=C\Cn1ccc(N)nc1=O [HDP-PPen-C, (3Z)-3-(hexadecyloxy)propyl hydrogen 5-(4-amino-2-oxopyrimidin-1(2H)-yl)pent-3-enylphosphonate] | 4.7 µM | 2.5 µM |  |  | 
CCCCCCCCCCCCCCCCOCCCOP(=O)(O)CC/C=C\Cn1cnc2c(=O)[nH]c(N)nc21 [HDP-PPen-G, (Z)-3-(hexadecyloxy)propyl hydrogen 5-(2-amino-6-oxo-1,6-dihydropurin-9-yl)pent-3-enylphosphonate] |  | > 10 µM | 0.15 µM | 2.4 µM | EC50 (EBV): 48 µM; EC50 (HBV; [4]): 2.5 µM; EC50 (Wild Type HBV): 8.8 µM
CCCCCCCCCCCCCCCCOCCCOP(=O)(O)CC/C=C\Cn1cc(C)c(=O)[nH]c1=O [HDP-PPen-T] | 0.9 µM | 1 µM |  |  | 
CCCCCCCCCCCCCCCCOCCCOP(=O)(O)CC/C=C\Cn1ccc(=O)[nH]c1=O [HDP-PPen-U, (3Z)-3-(hexadecyloxy)propyl hydrogen 5-(3,4-dihydro-2,4-dioxopyrimidin-1(2H)-yl)pent-3-enylphosphonate] | > 30 µM | > 10 µM |  | > 30 µM | 
CCCCCCCCCCCCCCCCCCOCCOP(=O)(O)CC/C=C\Cn1cnc2c(=O)[nH]c(N)nc21 [ODE-PPen-G, (Z)-2-(octadecyloxy)ethyl hydrogen 5-(2-amino-6-oxo-1,6-dihydropurin-9-yl)pent-3-enylphosphonate] | 4.6 µM |  |  |  | EC50 (HCMV): 0.17 µM; EC90 (HCMV): 0.81 µM; EC50 (MCMV): 0.004 µM; EC90 (MCMV): 0.03 µM
CCCCCCCC/C=C\CCCCCCCCOCCOP(=O)(O)CC/C=C\Cn1cnc2c(=O)[nH]c(N)nc21 [OLE-PPen-G, (Z)-2-(octadec-9-enyloxy)ethyl hydrogen 5-(2-amino-6-oxo-1,6-dihydropurin-9-yl)pent-3-enylphosphonate] | 0.68 µM |  |  |  | CC50 (in vitro [1]): > 1 µM; CC50 (in vitro [2]): > 1 µM; EC50 (HCMV): 0.47 µM; EC90 (HCMV): 0.89 µM; EC50 (MCMV): 0.028 µM; EC90 (MCMV): 0.12 µM
Nc1ncnc2c1ncn2CC=CCCP(=O)(O)O [PPen-A, 9-(5-Phosphono-pent-2-en-1-yl)-adenine] | > 30 µM | > 100 µM | > 300 µM | > 30 µM | EC50 (EBV): > 4 µM
Nc1ccn(CC=CCCP(=O)(O)O)c(=O)n1 [PPen-C, 1-(5-Phosphono-pent-2-en-1-yl)cytosine] | > 30 µM | > 100 µM | > 60 µM | > 30 µM | 
Nc1nc2c(ncn2CC=CCCP(=O)(O)O)c(=O)[nH]1 [PPen-G, 9-(5-Phosphono-pent-2-en-1-yl)-guanine] | > 30 µM | > 100 µM | 7.2 µM | > 30 µM | 
Cc1cn(CC=CCCP(=O)(O)O)c(=O)[nH]c1=O [PPen-T, 1-(5-Phosphono-pent-2-en-1-yl)-thymine] | > 30 µM | > 100 µM | > 300 µM | > 30 µM | 
O=c1ccn(CC=CCCP(=O)(O)O)c(=O)[nH]1 [PPen-U, 1-(5-Phosphono-pent-2-en-1-yl)-uracil] | > 30 µM | > 100 µM | > 300 µM | > 30 µM | 
